What is called IC50 is the concentration that inhibits the measured activity by half. Broadly, the inhibition is the relative decrease from the control value, in per cent.

Structures can show the parent of a compound that is named as a salt.

For 34 compounds, IC50 and inhibition results are on record in patent US8921364B2, “Modulators of calcium release-activated calcium channel” (Rhizen Pharmaceuticals SA, priority 2009, dated 2014).

In one experiment the target is CRAC channels (Homo sapiens (Human), UniProt Q96D31). Kind of experiment: In-vitro CRAC channel inhibition assay in Jurkat cells (thapsigargin-induced calcium influx). Type of experiment: cell-based.
Chain of CRAC channels (Q96D31 whole entry): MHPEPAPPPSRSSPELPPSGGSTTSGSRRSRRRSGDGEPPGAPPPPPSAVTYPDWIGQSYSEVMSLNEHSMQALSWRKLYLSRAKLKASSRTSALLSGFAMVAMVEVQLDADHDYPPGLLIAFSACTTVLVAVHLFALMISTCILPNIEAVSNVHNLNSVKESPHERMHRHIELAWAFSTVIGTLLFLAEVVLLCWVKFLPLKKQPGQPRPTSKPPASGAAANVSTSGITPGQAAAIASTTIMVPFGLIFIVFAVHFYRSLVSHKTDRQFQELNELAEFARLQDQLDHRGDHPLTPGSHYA
Details: not given
The procedure: Inhibition of CRAC channels was determined following thapsigargin (Sigma, Cat # T9033) induced endoplasmic calcium release in Jurkat cells. […] Cells were centrifuged and re-suspended in equal volumes ° f Ca^2+ and Mg^2+ free Hanks buffer and Fluo-8 NW dye (ABD Bioquest, Inc., Sunnyvale, Calif.) loading solution at 2×10^5 cells/100 μl/well in 96-well black plate. Plate is incubated at 37° C., 5% CO2 for 30 min followed by further 15 min incubation at room temperature. Test compounds (DMSO stocks diluted in Ca^2+ and Mg^2+ free Hanks buffer) at desired concentrations were added to the wells and incubated for […] Thapsigargin (1 μM final concentration) was added to the wells and incubated for 15 min to inhibit the Sarco-endoplasmic reticulum Ca^2+ ATPase pump thereby depleting endoplasmic calcium and raising cytosolic calcium concentrations. Store-operated calcium entry was initiated by adding extracellular Ca^2+ to a final concentration of 1.8 mM. Fluorescence was monitored over […] on a plate reader (BMG Labtech., Germany) with excitation at 485 nm and an emission wavelength at 520 nm. Data were analyzed using GraphPad Prism. IC50 for each compound was determined based on the percent inhibition of thapsigargin-induced calcium influx into cells.
For `Cc1oncc1C(=O)Nc1ccc(-n2nc(C3CC3)cc2C2CC2)cc1` [Example 4, N-[4-(3,5-dicyclopropyl-1H-pyrazol-1-yl)phenyl]-5-methylisoxazole-4-carboxamide], the IC50 worked out at 256 nM.

Staying with this experiment, now noted: Jurkat cells, 1 uM, thapsigargin-induced calcium influx.
In the case of `O=C(Nc1ccc(-n2nc(C3CC3)cc2C2CC2)c(F)c1)c1ccncc1` [Example 35, N-[4-(3,5-dicyclopropyl-1H-pyrazol-1-yl)-3-fluorophenyl]isonicotinamide hydrochloride], the inhibition at 1 µM is 100%.

The experiment is the same for the next values; noted with them: Jurkat cells, thapsigargin-induced calcium influx.
As for `Cc1nnsc1C(=O)Nc1ccc(-n2nc(C3CC3)cc2C2CC2)cc1` [Example 1, N-[4-(3,5-dicyclopropyl-1H-pyrazol-1-yl)phenyl]-4-methyl-1,2,3-thiadiazole-5-carboxamide], the IC50 was 62.4 nM.

Take `Cc1ncsc1C(=O)Nc1ccc(-n2nc(C3CC3)cc2C2CC2)cc1` [Example 2, N-[4-(3,5-dicyclopropyl-1H-pyrazol-1-yl)phenyl]-4-methylthiazole-5-carboxamide]: the IC50 is 207 nM.

Consider `Cc1ccccc1C(=O)Nc1ccc(-n2nc(C3CC3)cc2C2CC2)cc1` [Example 7, N-[4-(3,5-dicyclopropyl-1H-pyrazol-1-yl)phenyl]-2-methylbenzamide], for which the IC50 turned out to be 36.4 nM.

Consider `O=C(Nc1ccc(-n2nc(C3CC3)cc2C2CC2)cc1)c1ccncc1F` [Example 16, N-[4-(3,5-dicyclopropyl-1H-pyrazol-1-yl)phenyl]-3-fluoroisonicotinamide], for which the IC50 turned out to be 244 nM.

`O=C(Nc1ccc(-n2nc(C3CC3)cc2C2CC2)cc1)c1c(Cl)cncc1Cl` [Example 17, 3,5-dichloro-N-(4-(3,5-dicyclopropyl-1H-pyrazol-1-yl)phenyl)isonicotinamide]: the IC50 is 130 nM.

Take `O=C(Cc1ccccc1)Nc1ccc(-n2nc(C3CC3)cc2C2CC2)cc1` [Example 19, N-[4-(3,5-dicyclopropyl-1H-pyrazol-1-yl)phenyl]-2-phenylacetamide]: the IC50 turned out to be 457 nM.

For `O=C(Cc1ccccn1)Nc1ccc(-n2nc(C3CC3)cc2C2CC2)cc1` [Example 22, N-[4-(3,5-dicyclopropyl-1H-pyrazol-1-yl)phenyl]-2-(pyridin-2-yl)acetamide hydrochloride], the IC50 was 968 nM.

For `Cc1nnsc1C(=O)Nc1ccc(-n2nc(C3CC3)cc2C2CC2)c(F)c1` [Example 28, N-[4-(3,5-dicyclopropyl-1H-pyrazol-1-yl)-3-fluorophenyl]-4-methyl-1,2,3-thiadiazole-5-carboxamide], the IC50 stood at 60.3 nM.

Consider `O=C(Nc1ccc(-n2nc(C3CC3)cc2C2CC2)c(F)c1)c1c(F)cccc1F` [Example 33, N-[4-(3,5-dicyclopropyl-1H-pyrazol-1-yl)-3-fluorophenyl]-2,6-difluorobenzamide], for which the IC50 turned out to be 145 nM.

In the case of `O=C(Nc1ccc(-n2nc(C3CC3)cc2C2CC2)c(F)c1)c1ccncc1` [Example 35, N-[4-(3,5-dicyclopropyl-1H-pyrazol-1-yl)-3-fluorophenyl]isonicotinamide hydrochloride], the IC50 was determined as 185 nM.

Take `Cc1ncncc1C(=O)Nc1ccc(-n2nc(C3CC3)cc2C2CC2)c(F)c1` [Example 36, N-[4-(3,5-dicyclopropyl-1H-pyrazol-1-yl)-3-fluorophenyl]-4-methylpyrimidine-5-carboxamide]: the IC50 was found to be 224 nM.

`Cc1nnsc1C(=O)Nc1ccc(-n2nc(C3CC3)c(Cl)c2C2CC2)c(F)c1` [Example 37, N-[4-(4-chloro-3,5-dicyclopropyl-1H-pyrazol-1-yl)-3-fluorophenyl]-4-methyl-1,2,3-thiadiazole-5-carboxamide]: the IC50 amounted to 181 nM.

Turning to `Cc1ncsc1C(=O)Nc1ccc(-n2nc(C3CC3)cc2C2CC2)nc1` [Example 39, N-[6-(3,5-dicyclopropyl-1H-pyrazol-1-yl)pyridin-3-yl]-4-methylthiazole-5-carboxamide hydrochloride], the IC50 was 851 nM.

Regarding `O=C(Nc1ccc(-n2nc(C3CC3)cc2C2CC2)nc1)c1c(F)cccc1F` [Example 45, N-[6-(3,5-dicyclopropyl-1H-pyrazol-1-yl)pyridin-3-yl]-2,6-difluorobenzamide hydrochloride], the IC50 amounted to 436 nM.

Consider `Cc1nnsc1C(=O)Nc1ccc(-n2nc(C(F)(F)F)cc2C2CC2)cc1` [Example 52, N-{4-[5-cyclopropyl-3-(trifluoromethyl)-1H-pyrazol-1-yl]phenyl}-4-methyl-1,2,3-thiadiazole-5-carboxamide], for which the IC50 stood at 184 nM.

Turning to `Cc1ncsc1C(=O)Nc1ccc(-n2nc(C(F)(F)F)cc2C2CC2)cc1` [Example 53, N-{4-[5-cyclopropyl-3-(trifluoromethyl)-1H-pyrazol-1-yl]phenyl}-4-methylthiazole-5-carboxamide], the IC50 amounted to 72 nM.

As to `Cc1oncc1C(=O)Nc1ccc(-n2nc(C(F)(F)F)cc2C2CC2)cc1` [Example 56, N-{4-[5-cyclopropyl-3-(trifluoromethyl)-1H-pyrazol-1-yl]phenyl}-5-methylisoxazole-4-carboxamide], the IC50 came to 63.2 nM.

Consider `Cc1noc(C)c1C(=O)Nc1ccc(-n2nc(C(F)(F)F)cc2C2CC2)cc1` [Example 57, N-{4-[5-cyclopropyl-3-(trifluoromethyl)-1H-pyrazol-1-yl]phenyl}-3,5-dimethylisoxazole-4-carboxamide], for which the IC50 was 124 nM.

For `Cc1ccccc1C(=O)Nc1ccc(-n2nc(C(F)(F)F)cc2C2CC2)cc1` [Example 60, N-{4-[5-cyclopropyl-3-(trifluoromethyl)-1H-pyrazol-1-yl]phenyl}-2-methylbenzamide], the IC50 is 120 nM.

Regarding `O=C(Nc1ccc(-n2nc(C(F)(F)F)cc2C2CC2)cc1)c1ccncc1F` [Example 67, N-{4-[5-cyclopropyl-3-(trifluoromethyl)-1H-pyrazol-1-yl]phenyl}-3-fluoroisonicotinamide], the IC50 worked out at 20.4 nM.

Regarding `Cc1ncsc1CNc1ccc(-n2nc(C(F)(F)F)cc2C2CC2)cc1` [Example 74, 4-[5-cyclopropyl-3-(trifluoromethyl)-1H-pyrazol-1-yl]-N-[(4-methylthiazol-5-yl)methyl]aniline], the IC50 was found to be 48 nM.

For the compound `Cc1ncsc1NC(=O)c1ccc(-n2nc(C(F)(F)F)cc2C2CC2)cc1` [Example 78, 4-[5-cyclopropyl-3-(trifluoromethyl)-1H-pyrazol-1-yl]-N-(4-methylthiazol-5-yl)benzamide], the IC50 stood at 34.1 nM.

Regarding `O=C(Nc1c(F)cccc1F)c1ccc(-n2nc(C(F)(F)F)cc2C2CC2)cc1` [Example 79, 4-[5-cyclopropyl-3-(trifluoromethyl)-1H-pyrazol-1-yl]-N-(2,6-difluorophenyl)benzamide], the IC50 worked out at 124 nM.

Consider `Cc1ncsc1C(=O)Nc1ccc(-n2nc(C(F)(F)F)c(Cl)c2C2CC2)cc1` [Example 80, N-{4-[4-chloro-5-cyclopropyl-3-(trifluoromethyl)-1H-pyrazol-1-yl]phenyl}-4-methylthiazole-5-carboxamide], for which the IC50 was 194 nM.

On to `Cc1nnsc1C(=O)Nc1ccc(-n2nc(C(F)(F)F)cc2C2CC2)c(F)c1` [Example 82, N-{4-[5-cyclopropyl-3-(trifluoromethyl)-1H-pyrazol-1-yl]-3-fluorophenyl}-4-methyl-1,2,3-thiadiazole-5-carboxamide], for which the IC50 amounted to 35.7 nM.

Regarding `Cc1ncsc1C(=O)Nc1ccc(-n2nc(C(F)(F)F)cc2C2CC2)c(F)c1` [Example 83, N-{4-[5-cyclopropyl-3-(trifluoromethyl)-1H-pyrazol-1-yl]-3-fluorophenyl}-4-methylthiazole-5-carboxamide], the IC50 was found to be 48.2 nM.

On to `Cc1oncc1C(=O)Nc1ccc(-n2nc(C(F)(F)F)cc2C2CC2)c(F)c1` [Example 84, N-{4-[5-cyclopropyl-3-(trifluoromethyl)-1H-pyrazol-1-yl]-3-fluorophenyl}-5-methylisoxazole-4-carboxamide], for which the IC50 was 20.8 nM.

On to `O=C(Nc1ccc(-n2nc(C(F)(F)F)cc2C2CC2)c(F)c1)c1cccc(F)c1F` [Example 87, N-{4-[5-cyclopropyl-3-(trifluoromethyl)-1H-pyrazol-1-yl]-3-fluorophenyl}-2,3-difluorobenzamide], for which the IC50 turned out to be 32.6 nM.

`Cc1ncncc1C(=O)Nc1ccc(-n2nc(C(F)(F)F)cc2C2CC2)c(F)c1` [Example 93, N-{4-[5-cyclopropyl-3-(trifluoromethyl)-1H-pyrazol-1-yl]-3-fluorophenyl}-4-methylpyrimidine-5-carboxamide]: the IC50 stood at 81.2 nM.

Consider `Cc1ncncc1NC(=O)Nc1ccc(-n2nc(C(F)(F)F)cc2C2CC2)c(F)c1` [Example 97, 1-{4-[5-cyclopropyl-3-(trifluoromethyl)-1H-pyrazol-1-yl]-3-fluorophenyl}-3-(4-methylpyrimidin-5-yl)urea], for which the IC50 was 600 nM.

For the compound `O=C(Nc1c(F)cccc1F)c1ccc(-n2nc(C(F)(F)F)cc2C2CC2)c(F)c1` [Example 100, 4-[5-cyclopropyl-3-(trifluoromethyl)-1H-pyrazol-1-yl]-N-(2,6-difluorophenyl)-3-fluorobenzamide], the IC50 was 99.7 nM.

Turning to `Cc1nnsc1C(=O)Nc1ccc(-n2nc(C(F)(F)F)cc2C2CC2)nc1` [Example 101, N-{6-[5-cyclopropyl-3-(trifluoromethyl)-1H-pyrazol-1-yl]pyridin-3-yl}-4-methyl-1,2,3-thiadiazole-5-carboxamide], the IC50 was 150 nM.

For the compound `Cc1ccccc1C(=O)Nc1ccc(-n2nc(C(F)(F)F)cc2C2CC2)nc1` [Example 104, N-{6-[5-cyclopropyl-3-(trifluoromethyl)-1H-pyrazol-1-yl]pyridin-3-yl}-2-methylbenzamide], the IC50 was 23 nM.
